The target in test [1] is T1, PD-L1 (Homo sapiens, UniProt Q9NZQ7).
T1 construct: gene CD274; purified recombinant monomeric human PD-L1His (produced in plants); with PD-1 (PD-1Fc chimera)
In words: competitive ELISA of PD-1Fc binding to immobilized PD-L1. (In general: ELISA stands for enzyme-linked immunosorbent assay.)

Test [2] deals with T1, PD-L1. The test can be described thus: competitive ELISA of PD-1Fc binding to immobilized PD-L1; also partial competition with anti-PD-L1 mAb MIH1 on MDA-MB-231 cells (flow cytometry).

T1 sequence (Q9NZQ7 19-238 limits assumed): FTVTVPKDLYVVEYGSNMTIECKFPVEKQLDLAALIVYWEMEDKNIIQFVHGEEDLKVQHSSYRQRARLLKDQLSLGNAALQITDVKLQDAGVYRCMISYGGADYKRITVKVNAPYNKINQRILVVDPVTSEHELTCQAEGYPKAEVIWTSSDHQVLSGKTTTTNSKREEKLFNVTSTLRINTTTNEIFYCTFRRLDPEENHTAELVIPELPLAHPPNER
T1 sequence (Q15116 25-288 partner): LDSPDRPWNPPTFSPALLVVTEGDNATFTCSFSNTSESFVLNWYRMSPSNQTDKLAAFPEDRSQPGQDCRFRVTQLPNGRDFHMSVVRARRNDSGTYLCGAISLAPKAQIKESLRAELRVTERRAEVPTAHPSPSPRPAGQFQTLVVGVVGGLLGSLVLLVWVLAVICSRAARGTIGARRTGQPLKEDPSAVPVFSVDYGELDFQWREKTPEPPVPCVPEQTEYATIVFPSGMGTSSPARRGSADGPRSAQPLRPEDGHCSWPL

In the case of `Cc1c(C(=O)Nc2ccc(N3C[C@@H](C)O[C@@H](C)C3)nc2)cccc1-c1ccc(OC(F)(F)F)cc1` [compound 28, sonidegib], the IC50 – broadly, the concentration at which inhibition is half-maximal – on PD-L1 [1] was 481 µM.
PDI-1 registered an IC50 at PD-L1 [2] of 5.52 µM.
